Assay results: PMC6197257 (Scientific Reports, 2018)

Assays:
OAT1 = target: T1, OAT1 (Homo sapiens, UniProt Q4U2R8); details: cited from earlier work
T1 construct: expressed in transfected cells
T1 sequence (Q4U2R8 1-563): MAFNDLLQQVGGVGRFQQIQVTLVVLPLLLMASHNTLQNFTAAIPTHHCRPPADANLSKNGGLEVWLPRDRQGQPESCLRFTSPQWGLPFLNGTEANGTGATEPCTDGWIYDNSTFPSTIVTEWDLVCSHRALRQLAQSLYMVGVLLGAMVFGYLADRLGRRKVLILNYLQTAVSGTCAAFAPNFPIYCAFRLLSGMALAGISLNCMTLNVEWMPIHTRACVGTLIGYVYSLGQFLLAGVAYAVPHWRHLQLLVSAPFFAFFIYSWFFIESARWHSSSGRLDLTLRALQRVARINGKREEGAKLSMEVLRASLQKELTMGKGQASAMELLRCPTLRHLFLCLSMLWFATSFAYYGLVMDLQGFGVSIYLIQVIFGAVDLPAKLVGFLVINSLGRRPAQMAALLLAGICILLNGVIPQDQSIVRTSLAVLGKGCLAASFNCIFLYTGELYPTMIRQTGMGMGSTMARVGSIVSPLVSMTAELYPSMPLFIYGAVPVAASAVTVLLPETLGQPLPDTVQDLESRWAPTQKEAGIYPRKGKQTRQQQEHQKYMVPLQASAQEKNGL

rat 11β-HSD2 = target: T2, rat 11β-HSD2 (Rattus norvegicus, UniProt P50233); details: previous study; cited from earlier work
T2 construct: kidney microsome fractions were obtained from male Wistar rats (7-week-old); from tissue; host or cells: rat kidney microsome fraction (male Wistar rats)
T2 sequence (P50233 1-400): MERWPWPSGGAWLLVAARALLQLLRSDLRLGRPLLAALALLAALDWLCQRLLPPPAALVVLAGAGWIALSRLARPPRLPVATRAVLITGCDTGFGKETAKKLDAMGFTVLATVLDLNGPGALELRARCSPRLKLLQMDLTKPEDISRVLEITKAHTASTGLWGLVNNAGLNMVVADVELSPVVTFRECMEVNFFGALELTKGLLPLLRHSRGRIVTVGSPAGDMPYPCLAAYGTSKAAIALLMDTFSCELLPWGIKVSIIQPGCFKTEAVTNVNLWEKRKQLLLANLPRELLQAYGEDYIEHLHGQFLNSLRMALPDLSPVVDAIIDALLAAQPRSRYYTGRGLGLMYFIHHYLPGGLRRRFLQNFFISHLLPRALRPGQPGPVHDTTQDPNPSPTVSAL

anti-3MGA MAb = assay: competitive ELISA cross-reactivity of anti-3MGA MAb; format: binding, mouse; details: CR = IC50 for 3MGA / IC50 for compound x 100, 3MGA calibrated as 100%
Protocol: To activate the hapten 3MGA for the preparation of anti-3MGA MAb, the 3MGA-KLH conjugate was synthesized by using a model based on the carbodiimide method with both EDC and NHS reagents. 3MGA-HSA was also prepared using the same method, and was used for ELISA. We also evaluated the hapten number of the 3MGA-HSA conjugate by MALDI-TOF MS analysis. […] The MAb was developed by using the same methods described in our previous study. Hybridomas secreting antibodies recognizing 3MGA were selected by ELISA and then subcloned 4 times by the limited dilution method. […] The heavy chain of the obtained MAb was classified using a Calbiochem mouse hybridoma subisotyping kit (EMD Biosciences, Darmstadt, Germany), whereas the light chain was estimated using an IsoQuick^TM mouse monoclonal isotyping strip (Sigma) according to the manufacturer’s instructions.
3MGA-HSA (1 µg/ml in 50 mM carbonate buffer, pH 9.6) was added into a 96-well plate (Nagel Nunc, Penfield, NY, USA) (100 µl/well), and incubated at 37 °C for 1 h. After the removal of 3MGA-HSA, the wells were washed with 200 µl/well PBS containing 0.05% Tween 20 (T-PBS) for 3 times. The wells were incubated with 300 µl/well of 5% skim milk (Morinaga-milk, Tokyo, Japan) at 4 °C overnight. […] After the wells were washed with T-PBS 3 times, HRP-labeled goat anti-mouse IgG (Fc specific) antibody (1:1,000 dilution with T-PBS) was added into the wells (100 µl/well), and the plate was incubated at 37 °C for 1 h. Next, the wells were washed with T-PBS 3 times, the substrate solution (0.006% H2O2 in 200 mM citrate buffer, pH 4.0/H2O/0.6 mg/ml ABTS 10:9:1) was added into the wells (100 µl/well), and incubated at room temperature for 15 min.

[1] = pharmacokinetic profile of 3MGA in EHBRs orally treated with GA (50 mg/kg); format: in vivo; details: Eisai Hyperbilirubinemia rats (EHBR), rat, plasma; female EHBRs, GA 50 mg/kg oral; read-out: time of maximum plasma concentration
Protocol: Female EHBRs (8 or 9-week-old) were orally treated with GA (50 mg/kg) suspended in 0.5% CMC, and kept in metabolic cages. Blood samples (approximately 0.3 ml) were collected from the tail 1, 2, 3, 6, 12, 24, and 48 h after the oral treatment. Urine samples were collected 6, 12, 24, and 48 h after the oral treatment. The concentrations of 3MGA in the samples were measured by both ELISA and LC-MS/MS described in our previous paper. Ten µl aliquots of plasma or urine from rats treated with GA, or standard solution of 3MGA in plasma or urine collected from normal rats were mixed with 20 µl of 1:1,000 diluted subtilisin, and incubated at 37 °C for 30 min. After adding 70 µl of EtOH containing 10 µg/ml of PHB used as internal standard, the solution was applied into the system. The mass spectrometer used an electrospray ionization source in the positive ion mode with multiple reaction monitoring (ESI(+)MS-MRM). The analytical column was an Inertsil ODS-4, 2 mm i.d. ×75 mm, 3 µm (GL Sciences Inc., Tokyo, Japan). […] The transitions (precursor to daughter) monitored and retention times were 647.4 to 453.5 m/z for 3MGA (4.4 min) and 195.2 to 139.0 m/z for PHB (4.8 min). […]

OAT3 = target: T3, OAT3 (Homo sapiens, UniProt Q8TCC7); details: cited from earlier work
T3 construct: expressed in transfected cells
T3 sequence (Q8TCC7 1-542): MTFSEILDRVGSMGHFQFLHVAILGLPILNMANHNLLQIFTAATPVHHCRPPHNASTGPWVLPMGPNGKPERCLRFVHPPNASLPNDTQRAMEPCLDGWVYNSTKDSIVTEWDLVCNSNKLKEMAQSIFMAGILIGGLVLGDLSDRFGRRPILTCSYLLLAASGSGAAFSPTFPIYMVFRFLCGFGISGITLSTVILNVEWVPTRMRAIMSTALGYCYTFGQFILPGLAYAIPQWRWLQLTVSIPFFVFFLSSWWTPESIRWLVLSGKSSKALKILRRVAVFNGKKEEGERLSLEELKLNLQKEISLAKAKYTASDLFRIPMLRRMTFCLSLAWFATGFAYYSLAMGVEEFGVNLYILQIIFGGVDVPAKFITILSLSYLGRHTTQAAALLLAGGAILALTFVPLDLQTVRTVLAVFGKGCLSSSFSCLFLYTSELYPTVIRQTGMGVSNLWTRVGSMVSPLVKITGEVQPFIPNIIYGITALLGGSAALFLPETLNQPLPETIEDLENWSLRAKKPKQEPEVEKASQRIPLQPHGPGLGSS

SMILES: CC1(C)[C@@H](O[C@@H]2O[C@H](C(=O)O)[C@@H](O)[C@H](O)[C@H]2O)CC[C@]2(C)[C@H]3C(=O)C=C4[C@@H]5C[C@@](C)(C(=O)O)CC[C@]5(C)CC[C@@]4(C)[C@]3(C)CC[C@@H]12 [Compound 3MGA, 3-monoglucuronyl glycyrrhetinic acid]
- substrate of OAT1 (OAT1): is a substrate
- IC50 (rat 11β-HSD2): 260 nM
- cross-reactivity of anti-3MGA MAb (anti-3MGA MAb): 100%
- Tmax [1]: 6 h
- substrate of OAT3 (OAT3): is a substrate
